Results on 3 compounds are retold here after patent US20260242438A1 (INSTITUTE OF MATERIA MEDICA, CHINESE ACADEMY OF MEDICAL …, priority 2022, published 2026).

*1 amine or outer side, *2 acyl side, *3 side chain or, on linkers, in order; H or OH if unused. Where a SMILES comes first, the peptide text is derived from it. Bridges are numbered along the chain shown (N, C = ends). The star is where a group is joined. pNA = O=[N+]([O-])c1ccc(N*)cc1; Suc = O=C(CCC(=O)[*:2])[*:1]

In experiment [1] the target is T1, chymotrypsin (Bos taurus, UniProt P00766). Kind of experiment: Determination of the Michaelis constant Km of chymotrypsin hydrolyzing AAPFpNA. The note with it: R^2=0.9988, pH 7.8, 37° C. Format: biochemical. As for the experimental part: (1) Added a total 198 μL of reaction buffer (20 mM CaCl2, 50 mM Tris-HCl (pH 7.8)) into the 96 well plate, followed by preheating at 37° C. for 15 min. Then added 2 μL of different concentrations of substrates (p-Nitroanilide, pNA, 0.5% in DMSO), and mixed by centrifugation at 500 rpm for 1 min. Finally, the plate was incubated at 37° C. for 20 min, and the absorbance value at 405 nm was measured. In the 200 μL of reaction system, the final concentrations of pNA were 0, 0.025, 0.05, 0.075, 0.1, 0.125, 0.15, 0.25, and 0.3 mM, respectively. Make three repetitions for each concentration and plot the OD 405 nm value with pNA concentration to obtain the standard curve. (2) Added a total 190 μL of reaction buffer (20 mM CaCl2, 50 mM Tris-HCl (pH 7.8)) and 8 μL of 0.75 μM chymotrypsin into the 96 well plate, followed by preheating at 37° C. for 5 min. Then added 2 μL of different concentrations of substrates (AAPFpNA, dissolved in DMSO), and mixed by centrifugation at 500 rpm for 1 min. Finally, the plate was incubated at 37° C. for 20 min, and the absorbance value at 405 nm was measured. In the 200 μL of reaction system, the final concentrations of AAPFpNA were 0, 0.125, 0.25, 0.285, 0.33, 0.4, and 0.5 mM, respectively. […]
Using a certain concentration of chymotrypsin to catalyze different concentrations of AAPFpNA to produce pNA, and the absorbance value of OD 405 nm was measured.

A further experiment has as its system Normal ICR mice. Kind of experiment: In vivo hypoglycemic activity, subcutaneous administration. The note with it: for Glucose (mean ± sd): subcutaneous, 0.9 mg/kg. The procedure: Tail tip blood samples were collected at 40 min and 90 min after administration, and blood glucose levels were measured using glucose oxidase method to calculate blood glucose values at each blood sampling time point.

The target of experiment [2] is T1, chymotrypsin. In words: Determination of enzyme inhibitory activity against chymotrypsin (substrate AAPFpNA, OD 405 nm). Type of experiment: biochemical.

Regarding `C[C@H](NC(=O)CCC(=O)O)C(=O)N[C@@H](C)C(=O)N1CCC[C@H]1C(=O)N[C@@H](Cc1ccccc1)C(=O)Nc1ccc([N+](=O)[O-])cc1` [AAPFpNA, N-succinyl-Ala-Ala-Pro-Phe-p-nitroaniline] (Suc-AAPF-pNA), the Km on chymotrypsin [1] came out at 380 µM.

With “lispro: insulin analogue lispro synthesized in the present invention”, in the experiment with Normal ICR mice (subcutaneous administration, compared with a positive control), the “hypoglycemic activity (in words)” value is on record as “good hypoglycemic activity”. Moreover, the “Glucose (mean ± sd)” value is 96.7 ± 24.8 mg/dL in the experiment with Normal ICR mice (0 min), 70.3 ± 6.2 mg/dL with Normal ICR mice (40 min) and 72.9 ± 15.6 mg/dL with Normal ICR mice (90 min).

`CC[C@H](C)[C@@H]1NC(=O)[C@@H]2CCCN2C(=O)[C@@H]2CCCN2C(=O)[C@H]([C@@H](C)CC)NC(=O)[C@H](CO)NC(=O)[C@H](Cc2ccc(O)cc2)NC(=O)[C@H]([C@@H](C)O)NC(=O)[C@@H](NC(=O)[C@H](CCCNC(=N)N)NC(=O)CN)CSSC[C@@H](C(=O)N[C@@H](Cc2ccccc2)C(=O)O)NC1=O` [CH57] (H-GRCTYSIPPICF-OH; disulfide 3-11; C-terminus assumed): the Ki on chymotrypsin [2] was 20 nM. In addition, the midpoint of inhibition against chymotrypsin [2] (chymotrypsin 30 nM, AAPFpNA 0.5 mM, pH 7.8, 37° C.), the IC50, lay at 40 nM. The remaining activity at 0.0001 µM on chymotrypsin [2] (peptide 0.0001 μM, read-out: Residual activity of chymotrypsin) came out at 99 ± 1.3%. Also, on chymotrypsin [2] (peptide 0.001 μM, read-out: Residual activity of chymotrypsin), the remaining activity at 0.001 µM turned out to be 100.2 ± 0.3%. Further, at chymotrypsin [2] (peptide 0.01 μM, read-out: Residual activity of chymotrypsin), the remaining activity at 0.01 µM was determined as 98 ± 5.1%. Moreover, the remaining activity at 0.02 µM on chymotrypsin [2] (peptide 0.02 μM, read-out: Residual activity of chymotrypsin) was determined as 66 ± 7.5%. Further, the remaining activity at 0.04 µM on chymotrypsin [2] (peptide 0.04 μM, read-out: Residual activity of chymotrypsin) was 48.4 ± 5.8%. The remaining activity at 0.06 µM at chymotrypsin [2] (peptide 0.06 μM, read-out: Residual activity of chymotrypsin) is 38.1 ± 7.9%. Also, the remaining activity at 0.08 µM at chymotrypsin [2] (peptide 0.08 μM, read-out: Residual activity of chymotrypsin) came to 19.1 ± 4.6%. For the same compound, the remaining activity at 1 µM at chymotrypsin [2] (peptide 1 μM, read-out: Residual activity of chymotrypsin) is 0.9 ± 0.3%. Also, at chymotrypsin [2] (peptide 10 μM, read-out: Residual activity of chymotrypsin), the remaining activity at 10 µM is -0.2 ± 0.2%.

In general, Km refers to the concentration of substrate that gives half-maximal velocity. In general, Ki refers to a measure of affinity in units of concentration, obtained from inhibition or displacement. A lower Ki goes with a stronger hold on the target. A word on the IC50: it is the concentration that gives 50% inhibition. Higher therefore signals a need for much substance.
